Data set [1] can be described thus: In vivo release rate of chemotherapy drugs from hydrogel nanoparticle traps. Conditions: from EPO-loaded hydrogel nanoparticles. How it is done:
(§1) The fabrication of temperature sensitive hydrogel nanoparticles is described in the recent publication (Cai T, Hu P, Sun M, Zhou J, Tsai Y-T, Baker D W, Tang L. Novel thermogelling dispersions of polymer nanoparticles for controlled protein release. Nanomedicine 8 (8): 1301-8, 2012). The nanoparticles were loaded with EPO (600 international units/1 ml) in the presence or absence of doxorubicine (300 μg/m1) and paclitaxel (30 mg/ml). For that, EPO (600 international units), doxorubicine (300 μg) or paclitaxel (30 mg) was mixed with 50 μg of hydrogel nanoparticles at room temperature. After implantation, the average in vivo release rates for doxorubicin and paclitaxel were measured at 10 μg/day and 1 mg/day, respectively.

Data set [2] deals with PC3 cells. Nature of the data set: Cancer cell killing at implant sites of EPO+doxorubicin-loaded particles. Format: in vivo. Conditions: EPO+doxorubicin-loaded vs EPO-loaded particles, 1, 2, 4, and 7 days. How it is done:
as §1
(§2) Further studies were carried out to determine whether the implantation of chemotherapy drug-loaded cancer cell traps can kill cancer cells at the implant sites. […] To quantify cell recruitment, tissue section images were taken using a Leica fluorescence microscope (Leica Microsystems Wetzlar GmbH, Wetzlar, Germany) equipped with a QImaging Retiga-EXi CCD camera (QImaging, Surrey, BC, Canada). The tissue section images at a magnification of 400× (viewing area 0.24 mm^2) were then used to quantify the cell numbers per view field by cell counter plugin of ImageJ processing program.

For data set [3], the system named is melanoma cells. As to the kind of experiment: Cancer cell killing at implant sites of EPO+paclitaxel-loaded particles. Format: in vivo, C57 mice. Conditions: EPO+paclitaxel-loaded vs EPO-loaded particles, 1, 2, 4, and 7 days. How it is done: as §1, §2

Turning to `COc1cccc2c1C(=O)c1c(O)c3c(c(O)c1C2=O)C[C@@](O)(C(=O)CO)C[C@@H]3O[C@H]1C[C@H](N)[C@H](O)[C@H](C)O1` [doxorubicin], the “average in vivo release rate” value in data set [1] (300 μg/ml) is 10 µg/day. Besides, in data set [2], the “numbers of recruited PC3 cells at implant” value is listed as “substantially reduced”.
`CC(=O)O[C@H]1C(=O)[C@@]2(C)[C@H]([C@H](OC(=O)c3ccccc3)[C@]3(O)C[C@H](OC(=O)[C@H](O)[C@@H](NC(=O)c4ccccc4)c4ccccc4)C(C)=C1C3(C)C)[C@]1(OC(C)=O)CO[C@@H]1C[C@@H]2O` [paclitaxel]: the “average in vivo release rate” value in data set [1] (30 mg/ml) turned out to be 1000 µg/day. Further, in data set [3], the “numbers of recruited melanoma cells at implant” value is listed as “substantially reduced”.

Source of the values: patent publication US11413329B2, “Cancer cell trap” (BOARD OF REGENTS, THE UNIVERSITY OF TEXAS SYSTEM, priority 2012, dated 2022).
